From US9914731B2, “Pyrazolo[1,5-a]pyridine derivatives and methods of their use” (Ignyta, Inc., priority 2013, dated 2018)

What was measured:
[1] = target: recombinant human baculovirus-expressed AXL (Homo sapiens (Human), UniProt P30530); test: AXL kinase assay (HTRF KinEASE); format: biochemical; settings: average of two or more determinations
[2] = target: recombinant human baculovirus-expressed cMET (Homo sapiens (Human), UniProt P08581); test: c-MET kinase assay (HTRF KinEASE); format: biochemical; settings: average of two or more determinations; read-out: c-MET IC50

Compound	IC50 [1] [nM]	IC50 [2] [nM]
CCn1cc(C(=O)Nc2ccc(Oc3cc(-c4cncs4)cn4nccc34)c(F)c2)c(=O)n(-c2ccc(F)cc2)c1=O [Example 104, 1-Ethyl-3-(4-fluoro-phenyl)-2,4-dioxo-1,2,3,4-tetrahydro-pyrimidine-5-carboxylic acid[3-fluoro-4-(6-thiazol-5-yl-pyrazolo[1,5-a]pyridin-4-yloxy)-phenyl]-amide]	< 10	< 10
Cn1cnc(-c2cc(Oc3ccc(NC(=O)c4c[nH]c(=O)n(-c5ccc(F)cc5)c4=O)cc3F)c3ccnn3c2)c1 [Example 107, 3-(4-Fluoro-phenyl)-2,4-dioxo-1,2,3,4-tetrahydro-pyrimidine-5-carboxylic acid{3-fluoro-4-[6-(1-methyl-1H-imidazol-4-yl)-pyrazolo[1,5-a]pyridin-4-yloxy]-phenyl}-amide]	< 10	< 10
CCn1nc(C(=O)Nc2ccc(Oc3cc(-c4cn(C)cn4)cn4nccc34)c(F)c2)c(=O)n(-c2ccc(F)cc2)c1=O [Example 128, 2-Ethyl-4-(4-fluoro-phenyl)-3,5-dioxo-2,3,4,5-tetrahydro-1,2,4-triazine-6-carboxylic acid {3-fluoro-4-[6-(1-methyl-1H-imidazol-4-yl)-pyrazolo[1,5-a]pyridin-4-yloxy]-phenyl}-amide]	< 10	< 10
CC(C)n1nc(C(=O)Nc2ccc(Oc3cc(-c4cn(C)cn4)cn4nccc34)c(F)c2)c(=O)n(-c2ccc(F)cc2)c1=O [Example 129, 4-(4-Fluoro-phenyl)-2-isopropyl-3,5-dioxo-2,3,4,5-tetrahydro-1,2,4-triazine-6-carboxylic acid{3-fluoro-4-[6-(1-methyl-1H-imidazol-4-yl)-pyrazolo[1,5-a]pyridin-4-yloxy]-phenyl}-amide]	< 10	< 10
CCn1cc(C(=O)Nc2ccc(Oc3cc(NC(C)=O)cn4nccc34)c(F)c2)c(=O)n(-c2ccc(F)cc2)c1=O [Example 142, 1-Ethyl-3-(4-fluoro-phenyl)-2,4-dioxo-1,2,3,4-tetrahydro-pyrimidine-5-carboxylic acid[4-(6-acetylamino-pyrazolo[1,5-a]pyridin-4-yloxy)-3-fluoro-phenyl]-amide]	< 10	< 10

Other lines, results leading:

IC50 [1] [nM]	IC50 [2] [nM]	Compound
< 10	10 to 100	Cc1cc(NC(=O)c2cn(C(C)C)c(=O)n(-c3ccc(F)cc3)c2=O)ccc1Oc1cc(-c2cn(C)cn2)cn2nccc12 [Example 110, 3-(4-Fluoro-phenyl)-1-isopropyl-2,4-dioxo-1,2,3,4-tetrahydro-pyrimidine-5-carboxylic acid{3-methyl-4-[6-(1-methyl-1H-imidazol-4-yl)-pyrazolo[1,5-a]pyridin-4-yloxy]-phenyl}-amide]
< 10	< 10	CCn1cc(C(=O)Nc2ccc(Oc3cc(-c4cn(C)cn4)cn4nccc34)cc2)c(=O)n(-c2ccc(F)cc2)c1=O [Example 113, 1-Ethyl-3-(4-fluoro-phenyl)-2,4-dioxo-1,2,3,4-tetrahydro-pyrimidine-5-carboxylic acid {4-[6-(1-methyl-1H-imidazol-4-yl)-pyrazolo[1,5-a]pyridin-4-yloxy]-phenyl}-amide]
< 10	< 10	CC(C)n1cc(C(=O)Nc2ccc(Oc3cc(-c4cn(C)cn4)cn4nccc34)cc2)c(=O)n(-c2ccc(F)cc2)c1=O [Example 114, 3-(4-Fluoro-phenyl)-1-isopropyl-2,4-dioxo-1,2,3,4-tetrahydro-pyrimidine-5-carboxylic acid{4-[6-(1-methyl-1H-imidazol-4-yl)-pyrazolo[1,5-a]pyridin-4-yloxy]-phenyl}-amide]
< 10	< 10	CC(C)n1cc(C(=O)Nc2ccc(Oc3cc(-c4cn(C)cn4)cn4nccc34)cn2)c(=O)n(-c2ccc(F)cc2)c1=O [Example 124, 3-(4-Fluoro-phenyl)-1-isopropyl-2,4-dioxo-1,2,3,4-tetrahydro-pyrimidine-5-carboxylic acid {5-[6-(1-methyl-1H-imidazol-4-yl)-pyrazolo[1,5-a]pyridin-4-yloxy]-pyridin-2-yl}-amide]
